Results reported in DBAASP.
≈ marks a conversion by molar mass, not a printed value. Where “and” joins values, the source holds several entries; their conditions need not be identical. Equal entries are not always repeated. Values belong to the compound of their own block, whether it stands above or below them.

Tests used:
Assay in all cases: ≥ marks a high value that may be exact or a test limit, other limits are often not marked, values filed in µg/mL are converted to µM
[1] = tested on: Acinetobacter baumannii ATCC 19606
[2] = tested on: Pseudomonas aeruginosa 2760
[3] = tested on: Klebsiella pneumoniae ATCC 700603
[4] = tested on: Staphylococcus aureus 725
[5] = tested on: Enterococcus faecalis ATCC 29212
[6] = tested on: Staphylococcus aureus ATCC 25923
[7] = tested on: Bacillus subtilis ATCC 23857
[8] = tested on: Staphylococcus aureus 936
[9] = tested on: Pseudomonas aeruginosa ATCC 27853
[10] = tested on: Escherichia coli 780
[11] = tested on: Acinetobacter baumannii
[12] = tested on: Escherichia coli 850
[13] = tested on: Escherichia coli ATCC 25922
[14] = tested on: Cronobacter sakazakii DSM 4485
[15] = tested on: Klebsiella pneumoniae NCIMB 13218
[16] = tested on: Salmonella enterica subsp. enterica serovar Typhimurium LT2
[17] = tested on: Cronobacter sakazakii DPC 6440
[18] = tested on: Escherichia coli NCIMB 11843
[19] = tested on: Staphylococcus aureus NCTC 8325-4
[20] = tested on: Staphylococcus aureus RF122
[21] = tested on: Pseudomonas fluorescens NCIMB 9046
[22] = tested on: Staphylococcus aureus Newman
[23] = tested on: Staphylococcus aureus RN4220
[24] = tested on: Staphylococcus aureus SA113
[25] = tested on: Cronobacter sakazakii ATCC BAA-894
[26] = tested on: Cronobacter muytjensii ATCC 51329
[27] = tested on: Candida glabrata 090902
[28] = tested on: Psychrobacter faecalis X29
[29] = tested on: Nocardia asteroides 201118
[30] = tested on: Enterococcus faecium 091299
[31] = tested on: Enterococcus faecalis 981
[32] = tested on: Candida albicans ATCC 10231
[33] = tested on: Klebsiella pneumoniae 08040724
[34] = tested on: Enterobacter cloacae CGMCC 1.57
[35] = tested on: Escherichia coli DL7
[36] = tested on: Bacillus subtilis PS832
[37] = tested on: Klebsiella aerogenes ATCC 13048
[38] = tested on: Staphylococcus epidermidis ATCC 12228
[39] = tested on: Salmonella enterica subsp. enterica serovar Typhimurium C77-31
[40] = tested on: Staphylococcus aureus ATCC 29213
[41] = tested on: Pseudomonas aeruginosa LCCI
[42] = tested on: Pseudomonas aeruginosa ATCC 10419
[43] = tested on: Pseudomonas aeruginosa ATCC 21625
[44] = tested on: Pseudomonas aeruginosa LCGE
[45] = tested on: Pseudomonas aeruginosa LCCE
[46] = tested on: Pseudomonas aeruginosa LC
[47] = tested on: Pseudomonas aeruginosa ATCC 21630
[48] = tested on: Escherichia coli K12 MG1655
[49] = tested on: Staphylococcus aureus 68 HER 1049

Compound: CC[C@H](C)[C@H](NC(=O)[C@H](CCCCN)NC(=O)[C@H](CCCCN)NC(=O)[C@H](C)NC(=O)[C@H](CC(C)C)NC(=O)[C@H](C)NC(=O)[C@H](C)NC(=O)[C@H](CC(C)C)NC(=O)[C@@H]1CCCN1C(=O)[C@H](CCCCN)NC(=O)[C@H](CC(C)C)NC(=O)[C@H](CC(N)=O)NC(=O)[C@@H](NC(=O)[C@H](CCCCN)NC(=O)CNC(=O)[C@H](CC(C)C)NC(=O)[C@H](CC(C)C)NC(=O)[C@H](Cc1ccc(O)cc1)NC(=O)CNC(=O)[C@H](C)N)[C@@H](C)CC)C(=O)N[C@@H](CC(C)C)C(N)=O [AGYLLGKINLKPLAALAKKIL]
MIC [1]: 3.62 µM (≈ 8 µg/mL)
MIC [2]: 29 µM (≈ 64 µg/mL)
MIC [3]: 29 µM (≈ 64 µg/mL)
MIC [4]: 29 µM (≈ 64 µg/mL)
MIC [5]: > 58 µM
MIC [6]: 58 µM (≈ 128 µg/mL)
MIC [7]: 3.62 µM (≈ 8 µg/mL)
MIC [8]: ≥ 58 µM
MIC [9]: 58 µM (≈ 128 µg/mL)
MIC [10]: 14.5 µM (≈ 32 µg/mL)
MIC [11]: 3.62 µM (≈ 8 µg/mL)
MIC [12]: 7.24 µM (≈ 16 µg/mL)
MIC [13]: 7.24 µM (≈ 16 µg/mL)

Compound: CC[C@H](C)[C@H](NC(=O)CNC(=O)[C@@H](NC(=O)[C@H](C)NC(=O)[C@H](C)NC(=O)[C@H](CCCCN)NC(=O)[C@@H](NC(=O)[C@H](CC(C)C)NC(=O)CNC(=O)[C@@H]1CCCN1C(=O)[C@H](CC(C)C)NC(=O)[C@@H](N)Cc1ccccc1)[C@@H](C)CC)C(C)C)C(=O)NCC(=O)N[C@@H](CO)C(=O)N[C@H](C(=O)N[C@H](C(=O)N[C@@H](Cc1ccccc1)C(=O)N[C@H]1CSSC[C@@H](C(=O)O)NC(=O)[C@H](CCCCN)NC(=O)[C@H](CCCN=C(N)N)NC(=O)[C@H](CO)NC(=O)[C@H]([C@@H](C)CC)NC(=O)[C@H](CCCCN)NC1=O)[C@@H](C)CC)[C@@H](C)O [FLPGLIKAAVGIGSTIFCKISRKC]
MIC [27]: 3.1 µM (≈ 7.82 µg/mL)
MIC [28]: 25 µM (≈ 63 µg/mL)
MIC [6]: 3.1 µM (≈ 7.82 µg/mL)
MIC [29]: 3.1 µM (≈ 7.82 µg/mL)
MIC [30]: ≥ 100 µM
MIC [31]: 3.1 µM (≈ 7.82 µg/mL)
MIC [32]: 50 µM (≈ 126 µg/mL)
MIC [13]: 100 µM (≈ 252 µg/mL)
MIC [33]: ≥ 100 µM
MIC [34]: ≥ 100 µM

Compound: CC[C@H](C)[C@H](NC(=O)[C@H](CCCCN)NC(=O)[C@H](CCCCN)NC(=O)[C@H](CC(C)C)NC(=O)[C@H](CCCN=C(N)N)NC(=O)[C@H](CCCCN)NC(=O)[C@H](CCCN=C(N)N)NC(=O)[C@H](Cc1ccccc1)NC(=O)[C@H](CCCCN)NC(=O)[C@H](CCCCN)NC(=O)[C@H](CCCN=C(N)N)NC(=O)[C@H](CC(C)C)NC(=O)[C@H](CCCN=C(N)N)NC(=O)[C@H](CCCN=C(N)N)NC(=O)[C@H](Cc1ccccc1)NC(=O)[C@@H](N)CCCN=C(N)N)C(N)=O [RFRRLRKKFRKRLKKI]
MIC [39]: ≥ 128 µM
MIC [40]: 128 µM (≈ 285 µg/mL)
MIC [9]: 256 µM (≈ 571 µg/mL)
MIC [41]: ≥ 256 µM
MIC [42]: ≥ 256 µM
MIC [43]: ≥ 256 µM
MIC [13]: 64 µM (≈ 143 µg/mL)
MIC [44]: ≥ 256 µM
MIC [38]: 32 µM (≈ 71.3 µg/mL)
MIC [45]: ≥ 256 µM
MIC [46]: ≥ 64 µM
MIC [47]: ≥ 256 µM

Compound: CC(C)C[C@H](NC(=O)[C@H](CCCN=C(N)N)NC(=O)[C@H](CCCCN)NC(=O)[C@H](Cc1c[nH]c2ccccc12)NC(=O)[C@H](Cc1c[nH]c2ccccc12)NC(=O)[C@H](CCCCN)NC(=O)[C@H](Cc1c[nH]c2ccccc12)NC(=O)[C@@H](N)Cc1c[nH]c2ccccc12)C(=O)N[C@@H](CCCN=C(N)N)C(=O)N[C@@H](CCCN=C(N)N)C(=O)N[C@@H](CC(C)C)C(=O)N[C@@H](Cc1ccccc1)C(=O)N[C@@H](CC(C)C)C(=O)N[C@@H](CC(C)C)C(=O)N[C@H](C(=O)O)C(C)C [WWKWWKRLRRLFLLV]
MIC [48]: 7.32 µM (≈ 16 µg/mL)
MIC [49]: 7.32 µM (≈ 16 µg/mL)

The remaining lines, values ahead:

MIC [14]: ≥ 1250 µM
MIC [15]: ≥ 2500 µM
MIC [16]: ≥ 2500 µM
MIC [17]: ≥ 1250 µM
MIC [18]: ≥ 2500 µM
MIC [19]: ≥ 1250 µM
MIC [20]: ≥ 2500 µM
MIC [21]: ≥ 2500 µM
MIC [22]: ≥ 2500 µM
MIC [23]: ≥ 2500 µM
MIC [24]: ≥ 2500 µM
MIC [25]: ≥ 1250 µM
MIC [26]: ≥ 1250 µM
Compound: CC(C)C[C@H](NC(=O)CNC(=O)[C@H](CCC(N)=O)NC(=O)[C@H](Cc1cnc[nH]1)NC(=O)[C@H](CCCCN)NC(=O)[C@H](C)N)C(=O)N1CCC[C@H]1C(=O)N[C@@H](CCC(N)=O)C(=O)N[C@@H](CCC(=O)O)C(=O)O [AKHQGLPQE]

MIC [35]: 16 µM and 8 µM
MIC [36]: 4 µM (≈ 9.01 µg/mL)
MIC [37]: ≥ 32 µM
MIC [38]: 16 µM (≈ 36.1 µg/mL)
Compound: CC(C)C[C@H](NC(=O)CNC(=O)[C@H](C)NC(=O)[C@H](CCCN=C(N)N)NC(=O)[C@H](Cc1cnc[nH]1)NC(=O)CNC(=O)CN)C(=O)N[C@@H](CCC(N)=O)C(=O)N[C@@H](Cc1ccccc1)C(=O)N1CCC[C@H]1C(=O)N[C@H](C(=O)NCC(=O)N[C@@H](CCCN=C(N)N)C(=O)N[C@H](C(=O)N[C@@H](Cc1cnc[nH]1)C(=O)N[C@@H](CCCN=C(N)N)C(=O)N[C@@H](CC(C)C)C(=O)N[C@@H](CC(C)C)C(=O)N[C@@H](CCCN=C(N)N)C(=O)N[C@@H](CCCCN)C(N)=O)C(C)C)C(C)C [GGHRAGLQFPVGRVHRLLRK]
